Patent US12514834B2, “Pharmaceutical composition for treating and/or preventing renal cystic ciliopathy” (Kyoto University, priority 2022, dated 2026)

What was measured:
[1] = system: cysts of collecting duct organoids from PKD1 knockout iPS cells (1383D2 cell line); test: Cyst enlargement inhibition in cysts from artificial collecting duct organoids induced from PKD1 knockout iPS cells; assay type: cell-based, human; conditions: 0.1 μM compound, with 2.5 μM AVP, 3 days of culturing, vs 0.1% DMSO; FIGS. 1-5
Protocol: Using PKD1 knockout iPS cells of the 1383D2 cell line, artificial collecting duct organoids with cystic structures were induced by the above method. The following protocol was used to examine compounds that inhibit cyst enlargement. • 1. Organoids in which cyst formation was occurring were collected in tubes. • 2. Medium was removed and 2 ml of Cell Recovery Solution was added. (4° C., 30 minutes) • 3. Gel was dissolved by gentle pipetting with a P-1000 pipetteman and then centrifuged. (500 g, 2 minutes) • 4. After removing the supernatant from 3 and adding 5 ml of FBS-containing medium (STO medium), cysts were separated from the organoids by pipetting. • 5. Using a stereomicroscope, cysts were collected in 15 ml tubes. • 6. The supernatant was removed, and then 2 ml of Accutase was added to perform treatment at 37° C. for 5 minutes. • 7. Cells were dissociated down to single cells by pipetting with a P-1000 pipetteman. • 8. After filtering, cells were counted. • 9. After cell counting, a cell suspension containing the required number of cells was transferred to a tube, and then 5 ml of FBS-containing medium (STO medium) was added to stop the Accutase reaction. To seed at 5×10^4 cells/well, the amount of the cell suspension required was calculated. • 10. Pellets were prepared by centrifugation (200 g, 5 minutes). • 11. The supernatant was thoroughly removed, and then DMEM/F12+B27 w/o V.A. medium (10% Afamin/Wnt3a CM, 200 ng/ml R-Spondin 1, 200 ng/ml FGF1, 10 μM Forskolin, 2.5 μM AVP, 10 μM Y27632) was added for suspension. To seed at 5×10^4 cells/well, the amount of medium required was calculated. • 12. The cell suspension from 11 was seeded at 5×10^4 cells/well into pre-prepared 50% Matrigel plates. The cell suspension was added slowly to avoid disrupting the Matrigel. • 13. […] Nine (9) locations inside the wells were photographed using a 4× objective lens under a fluorescence microscope (Keyence, BZ-X700), the cyst area was measured using a BZ-X Analyzer, and then the average value was calculated.
Cyst enlargement-inhibiting compounds to be evaluated in step 14 were added. […]

[2] = system: Pkd1flox/flox:Ksp-Cre mice (ADPKD model); test: ATRA treatment of ADPKD model mice; assay type: in vivo, mouse
Source text: Pkd1^flox/flox:Ksp-cre mice, which are ADPKD model mice, develop numerous cysts progressively after birth and die at approximately 14 days of age due to renal failure.
Mouse lineages were maintained with heterozygous Pkd1^flox/+:Ksp-Cre mice, and Pkd1^flox/flox:Ksp-cre mice were generated by mating mice of the same lineage.
On postnatal day 3, Pkd1^flox/flox:Ksp-cre mice (Cystic) and Pkd1^flox/+:Ksp-Cre mice (Non-cystic) were intraperitoneally administered with ATRA (Sigma, #R2625) dissolved in sunflower oil containing 2% DMSO (solvent) to achieve a dose of 10 mg/kg. A group of mice administered with only the solvent intraperitoneally was served as a negative control. Mice were euthanized on postnatal day 9, and renal tissues and blood samples were collected.
BUN in mouse serum was measured using an UN-L kit (Serotec, #A667-00).
Kidneys were fixed in 4% paraformaldehyde solution, and 4 μm-thick paraffin sections were prepared. After deparaffinization, HE staining was performed and renal tissues were photographed under an optical microscope. Cystic index was calculated by total cystic area/total renal tissue area×100 using image analysis and measurement software (WinROOF, Mitani Corporation).
Therapeutic effects of ATRA on ADPKD model mice Since ATRA has already been used as a therapeutic agent for Acute Promyelocytic Leukemia (APL) patients, the efficacy of ATRA in ADPKD model mice was examined from a drug repositioning perspective. To reflect the in vitro results of ATRA on collecting duct cyst enlargement in in vivo, Pkd1^flox/flox:Ksp-Cre mice, in which the Pkd1 allele is conditionally inactivated under expression of kidney-specific Ksp-Cre recombinase in the distal nephron segments and collecting ducts, were used. The mice develop renal failure from birth due to progressive cyst formation and die about 2 weeks after birth. Because Ksp cadherin is specifically expressed in the collecting ducts and distal tubules, cysts originating from the collecting ducts and distal tubules are formed in these ADPKD model mice. ATRA was administered at 10 mg/kg intraperitoneally to mice on postnatal day 3 (P3), and mice were then sacrificed at P9 (FIG. 12).

[3] = system: cyst cells from PKD1 knockout iPS cell-derived collecting duct organoids; test: Microarray comparison of gene expression in cyst cells cultured with and without TTNPB (GSEA, heat maps); assay type: cell-based, human; conditions: 0.1 μM TTNPB, cysts on day 5 of culture
Protocol: For comprehensive profiling of transcripts encoding human proteins, microarray analysis was performed at Filgen using the Human 8×60K LncRNA expression array (ArrayStar). Labeling of samples and array hybridization were performed according to the Agilent One-Color Microarray-Based Gene Expression Analysis protocol (Agilent Technology). Data were collected using Agilent's Feature Extraction software. Raw signal intensities were normalized using the quantile normalization method of GeneSpring GX v12.1.
To clarify the mechanism of action of TTNPB, gene expression in cyst cells cultured with and without TTNPB was compared by microarray (FIGS. 6 and 7).

[4] = 10 mg/kg intraperitoneally on P3, P9, FIG. 14

SMILES | cyst size (cyst area) [1] | cyst formation on the cortical side (HE-stained renal tissue sections) [2, 4] | kidney size (HE-stained renal tissue sections) [2, 4] | ratio of kidney weights to body weight (2KW/BW) ([2]; 10 mg/kg intraperitoneally on P3, P9, vs solvent, FIG. 13) | cystic index (proportion of the area occupied by cysts in the renal tissue) ([2]; 10 mg/kg intraperitoneally on P3, P9, vs solvent, FIG. 15) | body weight ([2]; 10 mg/kg intraperitoneally on P3, sacrificed at P9, FIG. 12) | BUN (blood urea nitrogen) levels ([2]; 10 mg/kg intraperitoneally on P3, serum at P9, vs control mice treated with solvent, FIG. 16) | TGFβ signaling pathway (GSEA) ([3]; FIG. 8) | expression levels of MMP1, SLC2A1, CFTR, and HMGCR ([3]; heat map FIG. 9) | expression of cellular senescence marker genes such as CDKN2B (p15) ([3]; heat map FIG. 10)
CC1(C)CCC(C)(C)c2cc(NC(=O)c3ccc(C(=O)O)cc3)ccc21 [AM80, tamibarotene] | significantly reduced the cyst sizes |  |  |  |  |  |  |  |  | 
CC1=C(/C=C/C(C)=C/C=C/C(C)=C/C(=O)O)C(C)(C)CCC1 [ATRA, all-trans retinoic acid] | reduced the cyst sizes | tended to inhibit cyst formation on the cortical side | suppressed the increase in kidney size | significantly decreased | significantly reduced | No significant body weight loss | significantly lower |  |  | 
C/C(=C\c1ccc(C(=O)O)cc1)c1ccc2c(c1)C(C)(C)CCC2(C)C [TTNPB, 4-[(E)-2-(5,6,7,8-tetrahydro-5,5,8,8-tetramethyl-2-naphthalenyl)-1-propenyl]benzoic acid] | significant reduction in cyst size |  |  |  |  |  |  | inhibited | decreased | promotes the expression
